In ChEMBL document CHEMBL1201862, “PubChem BioAssay data set” (2004):
The source made the active and inactive calls.

Tests used:
Type in all cases: functional
[1] = target: Ribosomal protein S6 kinase alpha-3 (Homo sapiens, UniProt P51812);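 note: measured within a kinome-wide profiling panel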
[2] = target: 5'-AMP-activated protein kinase catalytic subunit alpha-1 (Homo sapiens, UniProt Q13131)
[3] = target: Proto-oncogene tyrosine-protein kinase receptor Ret (Homo sapiens, UniProt P07949);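 note: measured within a kinome-wide profiling panel, RET as the panel member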
[4] = target: Tyrosine-protein kinase Lck (Homo sapiens, UniProt P06239);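 note: lck was assayed as one member of a kinase panel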
[5] = target: Death-associated protein kinase 3 (Homo sapiens, UniProt O43293);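 note: measured as one member of a kinome-wide profiling panel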
[6] = target: Mitogen-activated protein kinase 8 (Homo sapiens, UniProt P45983);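 note: value comes from one member of a kinome-wide kinase profiling panel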
[7] = target: Fibroblast growth factor receptor 1 (Homo sapiens, UniProt P11362)
[8] = target: Mitogen-activated protein kinase 9 (Homo sapiens, UniProt P45984);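 note: value from a kinome panel profiling assay, MAPK9 panel entry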
[9] = target: Mitogen-activated protein kinase kinase kinase kinase 2 (Homo sapiens, UniProt Q12851);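 note: measured as one member of a kinome-wide kinase panel, with MAP4K2 as the panel entry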
[10] = target: T1, Serine/threonine-protein kinase Chk1 (Homo sapiens, UniProt O14757);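 note: measured as one member of a kinome-wide kinase profiling panel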
T1 sequence (O14757 whole entry): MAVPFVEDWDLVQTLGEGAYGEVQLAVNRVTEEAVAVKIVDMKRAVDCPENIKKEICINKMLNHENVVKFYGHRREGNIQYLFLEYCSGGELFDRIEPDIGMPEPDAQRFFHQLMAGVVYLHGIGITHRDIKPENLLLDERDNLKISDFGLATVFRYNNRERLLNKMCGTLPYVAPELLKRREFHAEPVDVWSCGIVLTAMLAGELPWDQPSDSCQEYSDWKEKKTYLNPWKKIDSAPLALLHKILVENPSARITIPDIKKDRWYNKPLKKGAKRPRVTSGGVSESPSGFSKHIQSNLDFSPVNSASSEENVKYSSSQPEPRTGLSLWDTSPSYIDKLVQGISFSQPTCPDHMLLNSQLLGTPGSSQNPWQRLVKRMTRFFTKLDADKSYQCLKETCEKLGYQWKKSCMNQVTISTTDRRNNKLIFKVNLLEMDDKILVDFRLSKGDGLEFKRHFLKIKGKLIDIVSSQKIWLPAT

[11] = target: Dual specificity tyrosine-phosphorylation-regulated kinase 1B (Homo sapiens, UniProt Q9Y463); test: Navigating the Kinome. Panel member name: DYRK1B
[12] = target: cAMP-dependent protein kinase catalytic subunit PRKX (Homo sapiens, UniProt P51817)
Aurora kinase B = Aurora kinase B (Homo sapiens, UniProt Q96GD4)
[13] = target: Rho-associated protein kinase 1 (Homo sapiens, UniProt Q13464);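 note: measured within a broad kinome-wide panel profiling many kinases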
[14] = target: Serine/threonine-protein kinase Nek2 (Homo sapiens, UniProt P51955)
[15] = target: Cyclin-dependent kinase 9 (Homo sapiens, UniProt P50750);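 note: value from the CDK9 entry of a kinome-spanning kinase panel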
[16] = target: BDNF/NT-3 growth factors receptor (Homo sapiens, UniProt Q16620);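 note: NTRK2 measured as one member of a broad kinome-wide kinase profiling panel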
[17] = target: Macrophage-stimulating protein receptor (Homo sapiens, UniProt Q04912); test: Navigating the Kinome. Panel member name: MST1R
[18] = target: Macrophage colony-stimulating factor 1 receptor (Homo sapiens, UniProt P07333);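 note: value comes from the Navigating the Kinome screening panel, CSF1R member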
[19] = target: Calcium/calmodulin-dependent protein kinase type II subunit alpha (Homo sapiens, UniProt Q9UQM7); test: Navigating the Kinome. Panel member name: CAMK2A
[20] = target: Megakaryocyte-associated tyrosine-protein kinase (Homo sapiens, UniProt P42679);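 note: affinity measured as one member of a kinase panel (Navigating the Kinome) against MATK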
[21] = target: Ribosomal protein S6 kinase beta-1 (Homo sapiens, UniProt P23443);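 note: measured as one member of a kinome-wide profiling panel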
[22] = target: Casein kinase I isoform gamma-1 (Homo sapiens, UniProt Q9HCP0);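 note: measured as the CSNK1G1 member of a kinome profiling panel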
[23] = target: Tyrosine-protein kinase ITK/TSK (Homo sapiens, UniProt Q08881);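 note: affinity for ITK measured as one member of a broad kinase panel profiling binding across the kinome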
[24] = target: Testis-specific serine/threonine-protein kinase 1 (Homo sapiens, UniProt Q9BXA7)
[25] = target: Protein kinase C gamma type (Homo sapiens, UniProt P05129)
[26] = target: Serine/threonine-protein kinase Nek4 (Homo sapiens, UniProt P51957)
[27] = target: Interleukin-1 receptor-associated kinase 4 (Homo sapiens, UniProt Q9NWZ3)
[28] = target: Vascular endothelial growth factor receptor 3 (Homo sapiens, UniProt P35916);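 note: value from a kinome-wide profiling panel, with FLT4 as the panel member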
[29] = target: Tyrosine-protein kinase Fer (Homo sapiens, UniProt P16591);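 note: FER tested as one member of a kinome panel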
[30] = target: Calcium/calmodulin-dependent protein kinase type 1 (Homo sapiens, UniProt Q14012)
[31] = target: Homeodomain-interacting protein kinase 4 (Homo sapiens, UniProt Q8NE63)
[32] = target: STE20-like serine/threonine-protein kinase (Homo sapiens, UniProt Q9H2G2)
[33] = target: Serine/threonine-protein kinase MRCK alpha (Homo sapiens, UniProt Q5VT25)

Sequence of Fibroblast growth factor receptor 1 (P11362 whole entry): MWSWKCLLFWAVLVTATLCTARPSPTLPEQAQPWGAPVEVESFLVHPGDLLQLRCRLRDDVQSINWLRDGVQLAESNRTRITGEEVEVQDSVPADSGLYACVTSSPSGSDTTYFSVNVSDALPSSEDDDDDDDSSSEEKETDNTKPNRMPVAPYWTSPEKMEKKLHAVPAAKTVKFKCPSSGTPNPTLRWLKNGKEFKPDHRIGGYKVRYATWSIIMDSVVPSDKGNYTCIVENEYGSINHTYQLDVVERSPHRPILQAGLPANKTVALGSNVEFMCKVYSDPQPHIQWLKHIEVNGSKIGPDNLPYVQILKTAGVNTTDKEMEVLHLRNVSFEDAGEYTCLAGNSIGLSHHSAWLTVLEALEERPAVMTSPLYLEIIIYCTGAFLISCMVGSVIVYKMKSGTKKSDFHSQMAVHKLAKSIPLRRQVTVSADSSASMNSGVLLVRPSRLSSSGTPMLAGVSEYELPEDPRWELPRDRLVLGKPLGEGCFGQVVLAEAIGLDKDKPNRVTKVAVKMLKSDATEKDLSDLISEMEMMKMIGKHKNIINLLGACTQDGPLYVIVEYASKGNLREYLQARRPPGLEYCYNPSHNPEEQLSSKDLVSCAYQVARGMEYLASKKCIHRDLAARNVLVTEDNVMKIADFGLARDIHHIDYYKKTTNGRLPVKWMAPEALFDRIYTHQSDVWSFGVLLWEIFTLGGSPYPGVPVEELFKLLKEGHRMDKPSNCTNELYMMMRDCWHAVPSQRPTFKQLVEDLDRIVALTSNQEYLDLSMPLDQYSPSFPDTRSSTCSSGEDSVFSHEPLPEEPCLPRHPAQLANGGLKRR
Sequence of Death-associated protein kinase 3 (O43293 whole entry): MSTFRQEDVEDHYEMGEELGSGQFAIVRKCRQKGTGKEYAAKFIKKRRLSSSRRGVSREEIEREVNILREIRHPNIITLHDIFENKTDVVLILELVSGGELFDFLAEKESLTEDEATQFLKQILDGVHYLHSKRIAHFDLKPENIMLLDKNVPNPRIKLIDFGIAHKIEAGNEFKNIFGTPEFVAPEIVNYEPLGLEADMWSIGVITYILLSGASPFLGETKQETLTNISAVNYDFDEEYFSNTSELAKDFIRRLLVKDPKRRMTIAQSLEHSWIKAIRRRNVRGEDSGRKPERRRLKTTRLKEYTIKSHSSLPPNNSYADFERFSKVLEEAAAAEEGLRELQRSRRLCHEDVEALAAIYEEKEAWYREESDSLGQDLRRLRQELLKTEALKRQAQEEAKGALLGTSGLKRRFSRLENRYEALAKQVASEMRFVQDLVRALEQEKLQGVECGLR
Sequence of Cyclin-dependent kinase 9 (P50750 whole entry): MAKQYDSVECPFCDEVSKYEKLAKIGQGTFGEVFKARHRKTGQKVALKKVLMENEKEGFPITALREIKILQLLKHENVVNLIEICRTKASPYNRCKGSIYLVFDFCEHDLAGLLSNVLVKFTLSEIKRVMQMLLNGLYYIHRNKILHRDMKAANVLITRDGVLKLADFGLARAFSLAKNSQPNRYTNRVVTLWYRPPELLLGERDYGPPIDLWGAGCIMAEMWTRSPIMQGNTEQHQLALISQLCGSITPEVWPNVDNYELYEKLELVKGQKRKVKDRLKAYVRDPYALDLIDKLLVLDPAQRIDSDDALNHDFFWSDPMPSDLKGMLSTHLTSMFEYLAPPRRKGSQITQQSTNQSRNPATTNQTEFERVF
Sequence of Mitogen-activated protein kinase 8 (P45983 whole entry): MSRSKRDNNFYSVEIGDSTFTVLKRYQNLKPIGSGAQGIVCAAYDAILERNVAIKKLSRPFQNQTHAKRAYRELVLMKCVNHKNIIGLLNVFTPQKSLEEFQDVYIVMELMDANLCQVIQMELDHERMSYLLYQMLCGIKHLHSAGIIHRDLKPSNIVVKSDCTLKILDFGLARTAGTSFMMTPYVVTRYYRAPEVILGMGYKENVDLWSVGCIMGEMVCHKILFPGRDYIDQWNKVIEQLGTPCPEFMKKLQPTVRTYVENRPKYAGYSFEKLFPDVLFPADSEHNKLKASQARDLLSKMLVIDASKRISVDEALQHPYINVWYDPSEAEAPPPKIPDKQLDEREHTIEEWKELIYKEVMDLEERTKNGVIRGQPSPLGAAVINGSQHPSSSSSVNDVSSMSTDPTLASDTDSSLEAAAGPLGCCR
Sequence of Macrophage colony-stimulating factor 1 receptor (P07333 whole entry): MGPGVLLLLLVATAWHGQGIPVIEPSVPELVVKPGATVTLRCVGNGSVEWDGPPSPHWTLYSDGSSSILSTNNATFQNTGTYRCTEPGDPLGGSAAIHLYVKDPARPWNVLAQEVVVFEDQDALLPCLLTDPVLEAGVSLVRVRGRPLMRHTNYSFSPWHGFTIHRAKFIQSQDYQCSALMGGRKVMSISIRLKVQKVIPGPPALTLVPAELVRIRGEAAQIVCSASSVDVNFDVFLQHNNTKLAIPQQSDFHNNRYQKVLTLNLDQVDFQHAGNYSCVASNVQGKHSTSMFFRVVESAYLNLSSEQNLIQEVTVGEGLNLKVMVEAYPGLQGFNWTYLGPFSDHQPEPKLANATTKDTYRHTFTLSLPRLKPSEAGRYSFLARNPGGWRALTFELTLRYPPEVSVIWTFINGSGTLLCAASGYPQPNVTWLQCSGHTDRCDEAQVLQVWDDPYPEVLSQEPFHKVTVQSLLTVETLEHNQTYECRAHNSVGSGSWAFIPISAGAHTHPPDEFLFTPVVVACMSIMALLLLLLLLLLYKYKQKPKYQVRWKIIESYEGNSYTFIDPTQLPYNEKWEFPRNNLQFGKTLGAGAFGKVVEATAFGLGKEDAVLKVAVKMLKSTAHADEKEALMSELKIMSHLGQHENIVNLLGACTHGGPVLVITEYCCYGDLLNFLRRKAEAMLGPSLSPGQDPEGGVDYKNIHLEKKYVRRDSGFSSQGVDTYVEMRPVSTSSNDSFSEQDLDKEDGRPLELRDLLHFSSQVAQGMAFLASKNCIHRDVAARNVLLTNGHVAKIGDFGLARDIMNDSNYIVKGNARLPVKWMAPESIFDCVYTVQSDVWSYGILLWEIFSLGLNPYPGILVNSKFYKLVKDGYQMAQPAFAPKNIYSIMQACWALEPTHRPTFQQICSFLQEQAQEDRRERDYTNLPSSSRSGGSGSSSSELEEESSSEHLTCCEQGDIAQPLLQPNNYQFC
Sequence of Aurora kinase B (Q96GD4 whole entry): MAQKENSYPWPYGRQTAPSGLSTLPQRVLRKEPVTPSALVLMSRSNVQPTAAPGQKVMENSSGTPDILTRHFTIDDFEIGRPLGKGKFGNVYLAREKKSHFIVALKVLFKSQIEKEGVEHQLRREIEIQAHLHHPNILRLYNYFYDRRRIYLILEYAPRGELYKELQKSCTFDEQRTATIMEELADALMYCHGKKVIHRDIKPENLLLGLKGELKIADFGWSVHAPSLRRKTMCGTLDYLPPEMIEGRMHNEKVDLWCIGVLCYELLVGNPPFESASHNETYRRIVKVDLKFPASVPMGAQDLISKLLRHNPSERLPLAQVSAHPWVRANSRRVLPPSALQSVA
Sequence of Ribosomal protein S6 kinase alpha-3 (P51812 whole entry): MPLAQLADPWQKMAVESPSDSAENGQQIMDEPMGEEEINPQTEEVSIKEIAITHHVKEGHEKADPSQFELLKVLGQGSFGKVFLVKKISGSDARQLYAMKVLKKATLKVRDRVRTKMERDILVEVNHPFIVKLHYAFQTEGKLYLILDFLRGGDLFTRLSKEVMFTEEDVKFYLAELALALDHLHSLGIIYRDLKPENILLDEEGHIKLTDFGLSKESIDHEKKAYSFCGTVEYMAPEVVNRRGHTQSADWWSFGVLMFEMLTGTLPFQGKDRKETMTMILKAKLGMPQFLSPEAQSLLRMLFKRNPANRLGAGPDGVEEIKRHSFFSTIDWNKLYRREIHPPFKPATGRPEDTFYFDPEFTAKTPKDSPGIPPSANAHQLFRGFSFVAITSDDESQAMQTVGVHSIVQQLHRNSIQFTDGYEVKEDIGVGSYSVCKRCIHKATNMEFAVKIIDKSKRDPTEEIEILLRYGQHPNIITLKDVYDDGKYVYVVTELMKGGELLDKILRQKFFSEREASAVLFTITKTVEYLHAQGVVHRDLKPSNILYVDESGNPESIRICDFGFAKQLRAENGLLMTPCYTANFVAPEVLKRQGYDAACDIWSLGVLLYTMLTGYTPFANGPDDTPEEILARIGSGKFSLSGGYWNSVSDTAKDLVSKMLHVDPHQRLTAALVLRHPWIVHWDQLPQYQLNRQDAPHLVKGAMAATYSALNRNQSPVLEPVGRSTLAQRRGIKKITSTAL
Sequence of Tyrosine-protein kinase Lck (P06239 whole entry): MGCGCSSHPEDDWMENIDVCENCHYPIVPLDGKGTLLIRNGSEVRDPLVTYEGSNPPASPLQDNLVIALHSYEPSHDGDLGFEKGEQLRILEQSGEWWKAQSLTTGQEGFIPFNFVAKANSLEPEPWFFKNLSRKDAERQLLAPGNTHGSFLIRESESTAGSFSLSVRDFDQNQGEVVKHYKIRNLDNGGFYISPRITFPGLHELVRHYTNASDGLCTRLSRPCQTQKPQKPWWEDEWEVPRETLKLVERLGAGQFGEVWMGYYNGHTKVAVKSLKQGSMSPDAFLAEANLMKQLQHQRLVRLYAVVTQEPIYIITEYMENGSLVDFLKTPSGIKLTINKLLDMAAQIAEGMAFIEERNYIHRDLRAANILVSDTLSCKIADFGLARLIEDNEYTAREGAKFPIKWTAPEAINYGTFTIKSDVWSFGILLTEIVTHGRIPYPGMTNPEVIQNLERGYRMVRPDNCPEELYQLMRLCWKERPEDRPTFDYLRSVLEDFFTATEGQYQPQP
Sequence of Calcium/calmodulin-dependent protein kinase type 1 (Q14012 whole entry): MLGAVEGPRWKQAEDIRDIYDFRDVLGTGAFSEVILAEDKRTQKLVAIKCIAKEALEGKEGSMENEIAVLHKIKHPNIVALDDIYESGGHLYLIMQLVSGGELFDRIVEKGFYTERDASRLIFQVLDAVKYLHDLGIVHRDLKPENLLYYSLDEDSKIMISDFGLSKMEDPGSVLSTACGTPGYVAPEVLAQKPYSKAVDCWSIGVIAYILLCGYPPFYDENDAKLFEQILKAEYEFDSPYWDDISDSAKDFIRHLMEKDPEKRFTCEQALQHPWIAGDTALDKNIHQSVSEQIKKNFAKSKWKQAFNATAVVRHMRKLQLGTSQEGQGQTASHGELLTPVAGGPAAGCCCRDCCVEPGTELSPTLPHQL

| Ki [1] | Ki [2] | Ki [4] | Ki [6] | Ki [7] | Ki [8] | Ki [9] | Ki [10] | Ki (Aurora kinase B) | Ki [14] | Ki [15] | Ki [16] | Ki [18] | Compound | Ki [5] | further results |
| --- | --- | --- | --- | --- | --- | --- | --- | --- | --- | --- | --- | --- | --- | --- | --- |
| > 3.98 µM (inactive) | > 3.16 µM (inactive) | > 6.31 µM (inactive) | > 5.01 µM (inactive) | > 3.98 µM (inactive) | > 3.98 µM (inactive) | > 2.51 µM (inactive) | > 3.16 µM (inactive) | > 3.98 µM (inactive) | > 3.16 µM (inactive) | > 1.58 µM (inactive) | > 3.98 µM (inactive) | > 2.51 µM (inactive) | [2H]C([2H])([2H])Oc1cccc(C(C)NC(=O)c2sc(-c3ccncc3)nc2C)c1 (stereo not drawn) | > 5.01 µM (inactive) | Ki [3]: > 3.16 µM (inactive); Ki [11]: > 2.51 µM (inactive); Ki [12]: > 3.16 µM (inactive); Ki [13]: 0.0126 µM (active); Ki [17]: > 3.98 µM (inactive); Ki [19]: > 3.98 µM (inactive) |
| 0.0158 µM (active) | 0.0316 µM (active) | > 2.51 µM (inactive) | 2.51 µM (active) | > 5.01 µM (inactive) | 3.16 µM (active) | 0.0631 µM (active) | 7.94 µM (active) | 0.251 µM (active) | > 10 µM (inactive) | 0.2 µM (active) | > 5.01 µM (inactive) | > 2.51 µM (inactive) | Cc1n[nH]c2ccc(-c3cncc(OCC(N)Cc4ccc(Cl)c(Cl)c4)c3)cc12 (stereo not drawn) | 0.126 µM (active) | Ki [20]: > 2 µM (inactive); Ki [21]: 0.0251 µM (active); Ki [22]: 0.126 µM (active); Ki [23]: > 1.58 µM (inactive); Ki [24]: 0.1 µM (active); Ki [25]: 0.0158 µM (active); Ki [26]: 0.126 µM (active); Ki [27]: 0.126 µM (active); Ki [28]: 1.58 µM (active); Ki [29]: 1.26 µM (active); Ki [30]: 0.251 µM (active); Ki [31]: 2.51 µM (active); Ki [32]: 1.58 µM (active); Ki [33]: 0.00794 µM (active) |
